The supplement of paper PMC10307832

Legend:
Assay in all cases: relative viability (nuclei count vs DMSO), 5 days (fraction); higher = more cells survive
IPA-3 + Phenformin = compound: C1=CC=C2C(=C1)C=CC(=C2SSC3=C(C=CC4=CC=CC=C43)O)O [IPA-3] + N=C(N)NC(=N)NCCc1ccccc1 [Phenformin] (partner 250 µM)
Procedure, shortened: (§1)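 Nuclei were stained with Hoechst during a one-step fixation (final 0.05% Triton X-100, 1% formaldehyde, 1 ug/ml Hoechst) carried out 5 days after dosing, then counted on 4× images. The cells, lung cancer lines in 1536-well plates, had been dosed by pin tool the day after seeding with one drug alone or a fixed anchor-drug dose plus five library-drug doses (not always all listed) in √10 steps. Relative viability is the nuclei count in treated wells divided by that in vehicle wells, and each value is the median of duplicate plates.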

IPA-3 + Linsitinib = compound: C1=CC=C2C(=C1)C=CC(=C2SSC3=C(C=CC4=CC=CC=C43)O)O [IPA-3] + C[C@]1(O)C[C@@H](c2nc(-c3ccc4ccc(-c5ccccc5)nc4c3)c3c(N)nccn32)C1 [Linsitinib] (partner 1 µM)
Procedure, shortened: as §1

IPA-3 + Bortezomib = compound: C1=CC=C2C(=C1)C=CC(=C2SSC3=C(C=CC4=CC=CC=C43)O)O [IPA-3] + CC(C)C[C@H](NC(=O)[C@H](Cc1ccccc1)NC(=O)c1cnccn1)B(O)O [Bortezomib] (partner 0.002 µM)
Procedure, shortened: as §1

RAF265 + Dasatinib = compound: Cn1c(Nc2ccc(C(F)(F)F)cc2)nc2cc(Oc3ccnc(-c4ncc(C(F)(F)F)[nH]4)c3)ccc21 [RAF265] + Cc1nc(Nc2ncc(C(=O)Nc3c(C)cccc3Cl)s2)cc(N2CCN(CCO)CC2)n1 [Dasatinib] (partner 0.075 µM)
Procedure, shortened: as §1

Cell Line	relative viability (IPA-3 + Phenformin; first compound 0.2 µM)	relative viability (IPA-3 + Phenformin; first compound 0.6325 µM)	relative viability (IPA-3 + Phenformin; first compound 2 µM)	relative viability (IPA-3 + Phenformin; first compound 6.325 µM)	relative viability (IPA-3 + Phenformin; first compound 20 µM)	relative viability (IPA-3 + Linsitinib; first compound 0.2 µM)	relative viability (IPA-3 + Linsitinib; first compound 0.6325 µM)	relative viability (IPA-3 + Linsitinib; first compound 2 µM)	relative viability (IPA-3 + Linsitinib; first compound 6.325 µM)	relative viability (IPA-3 + Linsitinib; first compound 20 µM)	relative viability (IPA-3 + Bortezomib; first compound 0.2 µM)	relative viability (IPA-3 + Bortezomib; first compound 0.6325 µM)	relative viability (IPA-3 + Bortezomib; first compound 2 µM)	relative viability (IPA-3 + Bortezomib; first compound 6.325 µM)	relative viability (IPA-3 + Bortezomib; first compound 20 µM)	relative viability (RAF265 + Dasatinib; first compound 0.01 µM)	relative viability (RAF265 + Dasatinib; first compound 0.03162 µM)	relative viability (RAF265 + Dasatinib; first compound 0.1 µM)	relative viability (RAF265 + Dasatinib; first compound 0.3162 µM)	relative viability (RAF265 + Dasatinib; first compound 1 µM)
NCI-H1734	0.394	0.371	0.371	0.412	0.368	0.995	0.849	0.884	0.92	1.07	0.973	0.812	1.03	0.995	0.87	0.482	0.373	0.369	0.358	0.266
A-427	0.395	0.295	0.288	0.253	0.447	1.13	0.951	1.18	1.12	1.13	0.976	0.974	1.01	0.942	1.01	0.641	0.615	0.685	0.469	0.131
RERF-LC-KJ	0.5	0.409	0.509	0.441	0.462	0.965	0.876	0.875	0.811	1.01	1.33	1.36	1.12	1.25	1.18	0.822	0.735	0.658	0.456	0.4
NCI-H727	0.591	0.556	0.641	0.498	0.504	0.265	0.186	0.271	0.34	0.226	0.841	0.788	0.857	0.866	1.12	0.57	0.427	0.352	0.279	0.23
LCLC-97TM1	0.449	0.447	0.407	0.315	0.46	0.208	0.215	0.181	0.202	0.215	0.524	0.847	0.814	0.438	0.575	0.826	0.826	0.66	0.852	0.442
BEN	0.268	0.291	0.243	0.243	0.388	0.986	1.01	0.974	1.05	1.18	0.807	0.707	0.806	0.823	0.799	0.28	0.323	0.379	0.358	0.356
NCI-H2023	0.51	0.403	0.496	0.409	0.436	0.85	0.681	0.841	0.735	0.921	1.19	0.9	1.05	1.17	1.11	0.601	0.562	0.516	0.419	0.365
